# Test results reported in patent publication US8778954B2, “Phenylpyridine derivative and medicinal agent comprising same” (Kowa Company, Ltd., priority 2009, dated 2014).
# Molecular target: T1, human PPARγ2 (Homo sapiens, UniProt P37231)
# T1 construct: the amino acids 182 to 505 of human PPARγ2; expressed in transfected cells; host or cells: COS7 cells (African green monkey kidney)
# T1 sequence (P37231 182-505): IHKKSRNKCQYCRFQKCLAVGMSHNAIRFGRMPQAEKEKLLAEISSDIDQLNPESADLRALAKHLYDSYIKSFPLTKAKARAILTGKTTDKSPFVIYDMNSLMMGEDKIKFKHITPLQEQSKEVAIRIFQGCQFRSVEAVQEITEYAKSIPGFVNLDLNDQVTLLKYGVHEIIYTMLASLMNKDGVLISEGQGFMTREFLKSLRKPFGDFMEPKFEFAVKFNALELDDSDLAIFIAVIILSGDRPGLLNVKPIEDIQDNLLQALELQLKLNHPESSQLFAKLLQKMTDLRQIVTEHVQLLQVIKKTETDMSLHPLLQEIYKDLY
# Assay: PPARγ activation activity, Gal4-PPARγ2 LBD luciferase transfection assay using COS7 cells
# Type: cell-based
# Settings: Gal4-human PPARγ2 LBD chimera, 16 hours, rosiglitazone = 100%
# Procedure: The agonistic activity of the compounds of the invention on PPARγ was measured based on the transfection assay using COS7 cells (DS Pharma Biomedical Co., Ltd., Osaka, Japan), which are the cell line derived from the kidney of the African green monkey. COS7 cells were cultured under 5% CO2 concentration, and DMEM medium containing 10% fetal bovine serum, glutamic acid, and antibiotics was used as a medium.
# As an expression vector, a chimera in which DNA binding domain of Gal4, which is a yeast transcription factor, and ligand binding domain of human PPARγ2 are fused, i.e., a fused product between the amino acids 1 to 147 of Gal4 transcription factor and the amino acids 182 to 505 of human PPARγ2, was used. Furthermore, as a reporter vector, a firefly luciferase containing five copies of Gal4 recognition sequence in the promoter region was used. Plasmid transfection to the cells was performed according to a method which uses jetPEI (trade name, manufactured by Funakoshi Co., Ltd., Tokyo, Japan). Furthermore, β-galactosidase expression vector was employed as an internal standard.
# After the transfection of the cells, the medium was replaced with a DMEM medium (containing 1% serum) added with the test compound, and the cells were further cultured for 16 hours. After that, the luciferase activity and β-galactosidase activity in the cell lysis solution were measured.
# For the present test, dimethyl sulfoxide (DMSO) was used for dissolution and dilution of the test compounds, and during the cell treatment, the DMSO concentration in DMEM medium (containing 1% serum) was adjusted to 0.1%. As a positive compound, rosiglitazone (trade name, manufactured by ALEXIS Corporation, Switzerland) was used. The luciferase activity (%) of the test compounds (1 to 30 μmol/L) was calculated when the luciferase activity of rosiglitazone (3 to 10 μmol/L) is 100% and the luciferase activity in the absence of the test compound is 0%. The 50% effective concentration of the test compound (EC50, 50% effect concentration) was calculated by using SAS Preclinical Package Ver 5.0 (trade name, manufactured by SAS institute Japan Co., Tokyo, Japan), which is a statistical analysis program.
# EC50 values of these compounds are described in Table 2. […] Under the same condition, the PPARγ activation activity of telmisartan, i.e., EC50, was 1 to 5 μM.
row,Compound,EC50
1,"CCCCc1nc(C2CCC2)n(-c2ncc(OCC)cn2)c(=O)c1Cc1ccc(-c2ccccc2-c2noc(=O)[nH]2)nc1 [Example 25, 3-{2-{5-{[4-butyl-2-cyclobutyl-1-(5-ethoxypyrimidin-2-yl)-6-oxo-1,6-dihydropyrimidin-5-yl]methyl}pyridin-2-yl}phenyl}-1,2,4-oxadiazol-5(4H)-one]",0.82 µM
2,"CCCCc1nc(C2CC2)n(-c2ncc(OC)cn2)c(=O)c1Cc1ccc(-c2ccccc2-c2noc(=O)[nH]2)nc1 [Example 22, 3-{2-{5-{[4-butyl-2-cyclopropyl-1-(5-methoxypyrimidin-2-yl)-6-oxo-1,6-dihydropyrimidin-5-yl]methyl}pyridin-2-yl}phenyl}-1,2,4-oxadiazol-5(4H)-one]",1.55 µM
3,"CCCCc1nc(C(C)C)n(-c2ncc(OCC)cn2)c(=O)c1Cc1ccc(-c2ccccc2-c2nnn[nH]2)nc1 [Example 6, 5-{{6-[2-(1H-tetrazol-5-yl)phenyl]pyridin-3-yl}methyl}-6-butyl-3-(5-ethoxypyrimidin-2-yl)-2-isopropylpyrimidin-4(3H)-one]",1.36 µM
4,"CCCCc1nc(C(C)C)n(-c2ncc(OC)cn2)c(=O)c1Cc1ccc(-c2ccccc2-c2noc(=O)[nH]2)nc1 [Example 20, 3-{2-{5-{[4-butyl-2-isopropyl-1-(5-methoxypyrimidin-2-yl)-6-oxo-1,6-dihydropyrimidin-5-yl]methyl}pyridin-2-yl}phenyl}-1,2,4-oxadiazol-5(4H)-one]",0.85 µM
5,"CCCCc1nc(C)n(-c2cc(C)ccn2)c(=O)c1Cc1ccc(-c2ccccc2-c2noc(=O)[nH]2)nc1 [Example 15, 3-{2-{5-{[4-butyl-2-methyl-1-(4-methylpyridin-2-yl)-6-oxo-1,6-dihydropyrimidin-5-yl]methyl}pyridin-2-yl}phenyl}-1,2,4-oxadiazol-5(4H)-one]",3.61 µM
6,"CCCCc1nc(C)n(-c2ncc(C(F)(F)F)cc2Cl)c(=O)c1Cc1ccc(-c2ccccc2-c2nnn[nH]2)cn1 [Example 32, 5-{{5-[2-(1H-tetrazol-5-yl)phenyl]pyridin-2-yl}methyl}-6-butyl-3-[3-chloro-5-(trifluoromethyl)pyridin-2-yl]-2-methylpyrimidin-4(3H)-one]",2.74 µM
7,"CCCCc1nc(CC)n(-c2ncc(OC)cn2)c(=O)c1Cc1ccc(-c2ccccc2-c2noc(=O)[nH]2)nc1 [Example 18, 3-{2-{5-{[4-butyl-2-ethyl-1-(5-methoxypyrimidin-2-yl)-6-oxo-1,6-dihydropyrimidin-5-yl]methyl}pyridin-2-yl}phenyl}-1,2,4-oxadiazol-5(4H)-one]",3.39 µM
8,"CCCCc1nc(C2CCC2)n(-c2ncc(OC)cn2)c(=O)c1Cc1ccc(-c2ccccc2-c2noc(=O)[nH]2)nc1 [Example 24, 3-{2-{5-{[4-butyl-2-cyclobutyl-1-(5-methoxypyrimidin-2-yl)-6-oxo-1,6-dihydropyrimidin-5-yl]methyl}pyridin-2-yl}phenyl}-1,2,4-oxadiazol-5(4H)-one]",1.46 µM
9,"CCCCc1nc(C)n(-c2ncc(OCC)cn2)c(=O)c1Cc1ccc(-c2ccccc2-c2noc(=O)[nH]2)nc1 [Example 17, 3-{2-{5-{[4-butyl-1-(5-ethoxypyrimidin-2-yl)-2-methyl-6-oxo-1,6-dihydropyrimidin-5-yl]methyl}pyridin-2-yl}phenyl}-1,2,4-oxadiazol-5(4H)-one]",3.12 µM
10,"CCCCc1nc(CC)n(-c2ncc(OCC)cn2)c(=O)c1Cc1ccc(-c2ccccc2-c2noc(=O)[nH]2)nc1 [Example 19, 3-{2-{5-{[4-butyl-1-(5-ethoxypyrimidin-2-yl)-2-ethyl-6-oxo-1,6-dihydropyrimidin-5-yl]methyl}pyridin-2-yl}phenyl}-1,2,4-oxadiazol-5(4H)-one]",1.5 µM
11,"CCCCc1nc(C2CCCCC2)n(-c2ncc(OCC)cn2)c(=O)c1Cc1ccc(-c2ccccc2-c2noc(=O)[nH]2)nc1 [Example 27, 3-{2-{5-{[4-butyl-2-cyclohexyl-1-(5-ethoxypyrimidin-2-yl)-6-oxo-1,6-dihydropyrimidin-5-yl]methyl}pyridin-2-yl}phenyl}-1,2,4-oxadiazol-5(4H)-one]",0.67 µM
12,"CCCCc1nc(C2CCCC2)n(-c2ncc(OCC)cn2)c(=O)c1Cc1ccc(-c2ccccc2-c2noc(=O)[nH]2)nc1 [Example 26, 3-{2-{5-{[4-butyl-2-cyclopentyl-1-(5-ethoxypyrimidin-2-yl)-6-oxo-1,6-dihydropyrimidin-5-yl]methyl}pyridin-2-yl}phenyl}-1,2,4-oxadiazol-5(4H)-one]",0.38 µM

# Molecular target: T2, angiotensin II type 1 receptor (Oryctolagus cuniculus, UniProt P34976)
# T2 construct: By using a specimen of isolated rabbit blood vessels; from tissue; host or cells: rabbit (New Zealand White) thoracic aorta ring
# T2 sequence (P34976 1-359): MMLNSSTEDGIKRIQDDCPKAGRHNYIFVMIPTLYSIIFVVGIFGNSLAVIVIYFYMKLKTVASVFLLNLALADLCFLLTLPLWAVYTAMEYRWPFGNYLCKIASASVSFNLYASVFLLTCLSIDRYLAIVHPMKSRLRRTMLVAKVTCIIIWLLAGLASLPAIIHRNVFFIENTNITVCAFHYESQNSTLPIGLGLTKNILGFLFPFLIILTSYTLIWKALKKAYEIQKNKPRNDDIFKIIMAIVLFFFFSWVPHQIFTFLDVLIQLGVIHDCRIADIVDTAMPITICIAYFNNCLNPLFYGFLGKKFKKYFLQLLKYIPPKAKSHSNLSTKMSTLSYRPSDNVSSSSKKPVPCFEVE
# Assay: Angiotensin II receptor antagonistic activity in isolated rabbit blood vessels (thoracic aorta ring, angiotensin II-induced contraction)
# Type: cell-based
# Settings: 0.1 μM test compound, angiotensin II (10 nM)-induced contraction, read-out: Angiotensin II activity inhibitiom rate (%) at 0.1 μM concentration
# Procedure: By using a specimen of isolated rabbit blood vessels, antagonistic activity of the compounds of the invention against angiotensin II type 1 receptor was estimated from a dose-response curve of angiotensin II-induced blood vessel contraction. Specifically, the specimen of thoracic aorta ring of a rabbit (New Zealand White: male, 2.4 to 3.0 kg) was suspended in a magnus bath filled with Krebs-Henseleite buffer (composition: 118 mM NaCl, 4.7 mM KCl, 2.55 mM CaCl2, 1.18 mM MgSO4, 1.18 mM KH2PO4, 24.88 mM NaHCO3, and 11.1 mM D-glucose), and angiotensin II (10 nM)-induced contraction was obtained in the presence of the compounds of each test (1 nmol/L to 10 μmol/L). During the measurement, the inside temperature of the magnus bath was maintained at 37° C. and the bath was continuously ventilated with a sufficient amount of mixed gas (95% O2 and 5% CO2). The angiotensin II-induced contraction was converted into a relative value (%) that is based on the angiotensin II (0.1 μM)-induced contraction in the absence of the compounds of each example.
row,Compound,inhibition at 0.1 µM
1,"CCCCc1nc(C)n(-c2ncc(OCCS(C)(=O)=O)cn2)c(=O)c1Cc1ccc(-c2ccccc2-c2noc(=O)[nH]2)nc1 [Example 29, 3-{2-{5-{{4-butyl-2-methyl-1-{5-[2-(methylsulfonyl)ethoxy]pyrimidin-2-yl}-6-oxo-1,6-dihydropyrimidin-5-yl}methyl}pyridin-2-yl}phenyl}-1,2,4-oxadiazol-5(4H)-one]",96.3%
2,"CCCCc1nc(C2CC2)n(-c2ncc(OC)cn2)c(=O)c1Cc1ccc(-c2ccccc2-c2noc(=O)[nH]2)nc1 [Example 22, 3-{2-{5-{[4-butyl-2-cyclopropyl-1-(5-methoxypyrimidin-2-yl)-6-oxo-1,6-dihydropyrimidin-5-yl]methyl}pyridin-2-yl}phenyl}-1,2,4-oxadiazol-5(4H)-one]",59.5%
3,"CCCCc1nc(C)n(-c2ncc(OC)cn2)c(=O)c1Cc1ccc(-c2ccccc2-c2nnn[nH]2)nc1 [Example 1, 5-{{6-[2-(1H-tetrazol-5-yl)phenyl]pyridin-3-yl}methyl}-6-butyl-3-(5-methoxypyrimidin-2-yl)-2-methylpyrimidin-4(3H)-one]",100%
4,"CCCCc1nc(C)n(-c2ncc(OCCSC)cn2)c(=O)c1Cc1ccc(-c2ccccc2-c2noc(=O)[nH]2)nc1 [Example 28, 3-{2-{5-{{4-butyl-2-methyl-1-{5-[2-(methylthio)ethoxy]pyrimidin-2-yl}-6-oxo-1,6-dihydropyrimidin-5-yl}methyl}pyridin-2-yl}phenyl}-1,2,4-oxadiazol-5(4H)-one]",86.5%
5,"CCCCc1nc(C)n(-c2ncc(OCCS(C)(=O)=O)cn2)c(=O)c1Cc1ccc(-c2ccccc2-c2nnn[nH]2)nc1 [Example 13, 5-{{6-[2-(1H-tetrazol-5-yl)phenyl]pyridin-3-yl}methyl}-6-butyl-2-methyl-3-{5-[2-(methylsulfonyl)ethoxy]pyrimidin-2-yl}pyrimidin-4(3H)-one]",100%
6,"CCCCc1nc(C)n(-c2ccccn2)c(=O)c1Cc1ccc(-c2ccccc2-c2noc(=O)[nH]2)nc1 [Example 14, 3-{2-{5-{[4-butyl-2-methyl-6-oxo-1-(pyridin-2-yl)-1,6-dihydropyrimidin-5-yl]methyl}pyridin-2-yl}phenyl}-1,2,4-oxadiazol-5(4H)-one]",59.3%
7,"CCCCc1nc(C)n(-c2cc(C)ccn2)c(=O)c1Cc1ccc(-c2ccccc2-c2noc(=O)[nH]2)nc1 [Example 15, 3-{2-{5-{[4-butyl-2-methyl-1-(4-methylpyridin-2-yl)-6-oxo-1,6-dihydropyrimidin-5-yl]methyl}pyridin-2-yl}phenyl}-1,2,4-oxadiazol-5(4H)-one]",78.3%
8,"CCCCc1nc(C)n(-c2ncc(OCC)cn2)c(=O)c1Cc1ccc(-c2ccccc2-c2noc(=O)[nH]2)nc1 [Example 17, 3-{2-{5-{[4-butyl-1-(5-ethoxypyrimidin-2-yl)-2-methyl-6-oxo-1,6-dihydropyrimidin-5-yl]methyl}pyridin-2-yl}phenyl}-1,2,4-oxadiazol-5(4H)-one]",52.1%
9,"CCCCc1nc(C)n(-c2ncc(OC)cn2)c(=O)c1Cc1ccc(-c2ccccc2-c2noc(=O)[nH]2)nc1 [Example 16, 3-{2-{5-{[4-butyl-1-(5-methoxypyrimidin-2-yl)-2-methyl-6-oxo-1,6-dihydropyrimidin-5-yl]methyl}pyridin-2-yl}phenyl}-1,2,4-oxadiazol-5(4H)-one]",72.9%
10,"CCCCc1nc(C)n(-c2ncc(OCCSC)cn2)c(=O)c1Cc1ccc(-c2ccccc2-c2nnn[nH]2)nc1 [Example 12, 5-{{6-[2-(1H-tetrazol-5-yl)phenyl]pyridin-3-yl}methyl}-6-butyl-2-methyl-3-{5-[2-(methylthio)ethoxy]pyrimidin-2-yl}pyrimidin-4(3H)-one]",100%
11,"CCCCc1nc(C)n(-c2ncc(OCC)cn2)c(=O)c1Cc1ccc(-c2ccccc2-c2nnn[nH]2)nc1 [Example 2, 5-{{6-[2-(1H-tetrazol-5-yl)phenyl]pyridin-3-yl}methyl}-6-butyl-3-(5-ethoxypyrimidin-2-yl)-2-methylpyrimidin-4(3H)-one]",90.8%
